The source of these data is patent US12226403B2 (SPERO THERAPEUTICS, INC., priority 2016, dated 2025).

Series [1] in a line: PK parameters for oral administration to monkeys. Type of series: in vivo. Particulars: cynomolgus monkey, plasma, 100 mg; oral tablets vs previously generated IV data, estimated; read-out: bioavailability of tebipenem. On the procedure:
Each animal received a one week wash out prior to the next dose and each served as its own control. Blood samples were collected into K2EDTA tubes before processing to plasma. Samples were obtained at 15 minutes, 30 minutes, 1 hours, 2 hours, 4 hours, 6 hours, 8 hours, 10 hours, 12 hours, 16 hours, and 24 hours post administration. […] Non-compartmental analysis used to derive pharmacokinetic parameters of the composite time vs. concentration profiles were performed for each dose level using Phoenix Winnonlin v. 6.4. Plasma concentration of tebipenem for each time point was determined by HPLC.

Series [2] in a line: Previously generated IV data. The following applies: in vivo, 10 mg/kg dose. An excerpt: Cmax was reduced with the modified release formulation compared to the immediate release (free base and HBr) formulation but AUCall was relatively constant between the formulations. AUCinf could not be calculated due to the variability in the terminal elimination profile. […] Mean residence time was increased in the extended release formulation.

Molecules are shown by their SMILES.

The bioavailability is the share of a dose that reaches the circulation, judged against a reference dose that is usually intravenous. What is called AUC is concentration integrated over time. With `C[C@@H](O)[C@H]1C(=O)N2C(C(=O)O)=C(SC3CN(C4=NCCS4)C3)[C@H](C)[C@H]12` [tebipenem], the bioavailability in series [1] is 39 to 50%. In series [2], this compound gave an AUC of 13100 ng·h/mL.
